In patent publication US4443436A, “C-20-Modified macrolide derivatives of the macrolide antibiotics tylosin, desmycosin, macrocin, and lactenocin” (Eli Lilly and Company, priority 1982, dated 1984):
Converted amounts (≈) assume the structure as drawn. Like-named read-outs stand apart in the source and are kept apart here.

Columns and labels:
[1] = system: Staphylococcus aureus X1.1; experiment: MIC, standard agar-dilution assay, Staphylococcus aureus X1.1; type: cell-based
[2] = system: Staphylococcus aureus V41; experiment: MIC, standard agar-dilution assay, Staphylococcus aureus V41; type: cell-based
[3] = system: Staphylococcus aureus X400; experiment: MIC, standard agar-dilution assay, Staphylococcus aureus X400; type: cell-based
[4] = system: Staphylococcus aureus S13E; experiment: MIC, standard agar-dilution assay, Staphylococcus aureus S13E; type: cell-based
[5] = system: Staphylococcus epidermidis EPI1; experiment: MIC, standard agar-dilution assay, Staphylococcus epidermidis EPI1; type: cell-based
[6] = system: Staphylococcus epidermidis EPI2; experiment: MIC, standard agar-dilution assay, Staphylococcus epidermidis EPI2; type: cell-based; conditions: Staphylococcus epidermidis EPI2, agar dilution
[7] = system: Streptococcus pneumoniae Park I; experiment: microbe, parasite or virus in culture; type: cell-based; conditions: Streptococcus pneumoniae Park I, agar dilution
[8] = system: Streptococcus Group D X66; experiment: MIC, standard agar-dilution assay, Streptococcus Group D X66; type: cell-based
Streptococcus Group 9960 = experiment: MIC, standard agar-dilution assay, Streptococcus Group 9960; type: cell-based; conditions: Streptococcus Group 9960, agar dilution
[9] = system: Haemophilus influenzae Holt; experiment: MIC, standard agar-dilution assay, Haemophilus influenzae Holt; type: cell-based; conditions: Haemophilus influenzae Holt, ampicillin-sensitive strain
[10] = system: Haemophilus influenzae R252; experiment: MIC, standard agar-dilution assay, Haemophilus influenzae R252; type: cell-based; conditions: Haemophilus influenzae R252, ampicillin-resistant strain
Staphylococcus aureus = experiment: MIC, broth-dilution microtiter test, Staphylococcus aureus; type: cell-based
Text: (§1) The MIC's in Table X were obtained using conventional broth-dilution microtiter tests.

Streptococcus bovis 80 = experiment: MIC, broth-dilution microtiter test, Streptococcus bovis 80; type: cell-based; conditions: Streptococcus bovis 80, broth-dilution microtiter
Text: as §1

[11] = system: Pasteurella multocida 17E; experiment: MIC, broth-dilution microtiter test, Pasteurella multocida 17E; type: cell-based; conditions: Pasteurella multocida 17E, bovine isolate, broth-dilution microtiter
Text: as §1

[12] = system: Pasteurella multocida 60A; experiment: MIC, broth-dilution microtiter test, Pasteurella multocida 60A; type: cell-based; conditions: Pasteurella multocida 60A, avian isolate, broth-dilution microtiter
Text: as §1

[13] = system: Pasteurella hemolytica 22C; experiment: MIC, broth-dilution microtiter test, Pasteurella hemolytica 22C; type: cell-based; conditions: Pasteurella hemolytica 22C, broth-dilution microtiter
Text: as §1

Mycoplasma gallisepticum = experiment: MIC, broth-dilution microtiter test, Mycoplasma gallisepticum; type: cell-based
Text: as §1

Mycoplasma hyorhinis = experiment: MIC, broth-dilution microtiter test, Mycoplasma hyorhinis; type: cell-based
Text: as §1

[14] = system: Streptococcus pyogenes C203; experiment: In vivo protection of mice experimentally infected with S. pyogenes C203; conditions: mice, doses given 1 and 4 hours post-infection; for ED50: Streptococcus pyogenes
Protocol: The C-20 modified derivatives of this invention have shown in vivo antimicrobial activity against experimentally-induced infections in laboratory animals. When two doses of test compound were administered to mice experimentally infected with S. pyogenes C203, the activity observed was measured as an ED50 value [effective dose in mg/kg to protect 50% of the test animals: see Warren Wick, et al., J. Bacteriol. 81, 233-235 (1961)].

[15] = system: Streptococcus pyogenes C203; experiment: MIC, standard agar-dilution assay, Streptococcus pyogenes C203; type: cell-based; conditions: Streptococcus pyogenes C203, agar dilution
[16] = Staphylococcus aureus X1.1, agar dilution
[17] = Staphylococcus aureus V41, penicillin-resistant strain, agar dilution
[18] = Staphylococcus aureus X400, methicillin-resistant strain, agar dilution
[19] = Staphylococcus aureus S13E, agar dilution
[20] = Staphylococcus epidermidis EPI1, agar dilution
[21] = Streptococcus Group D X66, agar dilution
[22] = Staphylococcus epidermidis, EPI1

Row | Compound | MIC [1, 16] [µg/mL] | MIC [2, 17] [µg/mL] | MIC [3, 18] [µg/mL] | MIC [4, 19] [µg/mL] | MIC [5, 20] [µg/mL] | MIC [6] [µg/mL] | MIC [7] [µg/mL] | MIC [8, 21] | MIC (Streptococcus Group 9960) | MIC ([9]; agar dilution) | MIC ([10]; agar dilution) | MIC [15] [µg/mL] | MIC ([1]; Staphylococcus aureus, X1.1) [µg/mL] | MIC ([2]; Staphylococcus aureus, V41) [µg/mL] | MIC ([3]; Staphylococcus aureus, X400) [µg/mL] | MIC ([4]; Staphylococcus aureus, S13E) [µg/mL] | MIC [5, 22] [µg/mL] | MIC ([15]; read-out: MIC) [µg/mL] | MIC ([7]; read-out: MIC) [µg/mL] | MIC (Streptococcus Group 9960; GROUP9960, read-out: MIC) [µg/mL] | also measured
1 | CCC(=O)OC1C(OC2C(CCN3C(=O)c4ccccc4C3=O)CC(C)C(=O)C=CC(C)=CC(COC3OC(C)C(O)C(OC)C3OC)C(CC)OC(=O)CC(O)C2C)OC(C)C(OC2CC(C)(O)C(O)C(C)O2)C1N(C)C (stereo not shown) [Compound 62, 20-DH-DO-20-N-Phthalimido-2'-O-propionyltylosin] | 1 (≈ 0.906 µM) | 1 (≈ 0.906 µM) | 2 (≈ 1.81 µM) | 1 (≈ 0.906 µM) | 1 (≈ 0.906 µM) | 1 (≈ 0.906 µM) | 2 (≈ 1.81 µM) | -- (Not active at 128 mcg/ml, the highest level tested) | -- (Not active at 128 mcg/ml, the highest level tested) | -- (Not active at 128 mcg/ml, the highest level tested) | -- (Not active at 128 mcg/ml, the highest level tested) | – | – | – | – | – | – | – | – | – | MIC (Staphylococcus aureus; broth-dilution microtiter): 3.12 µg/mL (≈ 2.83 µM); MIC (Streptococcus bovis 80): 12.5 µg/mL (≈ 11.3 µM); MIC [11]: -- (Not active at 50 mcg/ml, the highest level tested); MIC [12]: -- (Not active at 50 mcg/ml, the highest level tested); MIC [13]: -- (Not active at 50 mcg/ml, the highest level tested); MIC (Mycoplasma gallisepticum; Mycoplasma gallisepticum, broth-dilution microtiter): 1.56 µg/mL (≈ 1.41 µM); MIC (Mycoplasma hyorhinis; Mycoplasma hyorhinis, broth-dilution microtiter): 50 µg/mL (≈ 45.3 µM); ED50, Oral ([14]; oral): 66 mg/kg × 2; ED50, Subcutaneous ([14]; subcutaneous): > 6.3 mg/kg × 2
2 | CCC1OC(=O)CC(O)C(C)C(OC2OC(C)C(O)C(N(C)C)C2O)C(CCNC(=O)COc2ccccc2)CC(C)C(=O)C=CC(C)=CC1COC1OC(C)C(O)C(OC)C1OC (stereo not shown) [Compound 51c, 20-DH-DO-20-(N-phenoxyacetyl)aminodesmycosin] | 0.25 (≈ 0.276 µM) | 0.25 (≈ 0.276 µM) | 0.5 (≈ 0.551 µM) | 0.25 (≈ 0.276 µM) | 0.25 (≈ 0.276 µM) | 0.12 (≈ 0.132 µM) | 0.25 (≈ 0.276 µM) | 1 µg/mL (≈ 1.1 µM) | 1 µg/mL (≈ 1.1 µM) | 8 µg/mL (≈ 8.82 µM) | 8 µg/mL (≈ 8.82 µM) | 0.25 (≈ 0.276 µM) | – | – | – | – | – | – | – | – | –
3 | CCC1OC(=O)CC(O)C(C)C(OC2OC(C)C(OC3CC(C)(O)C(O)C(C)O3)C(N(C)C)C2O)C(CCOc2ncnc3ccccc23)CC(C)C(=O)C=CC(C)=CC1COC1OC(C)C(O)C(OC)C1OC (stereo not shown) [Compound 19a] | 0.5 (≈ 0.478 µM) | 0.5 (≈ 0.478 µM) | 1 (≈ 0.956 µM) | 0.5 (≈ 0.478 µM) | 1 (≈ 0.956 µM) | 0.5 (≈ 0.478 µM) | 4 (≈ 3.82 µM) | 32 µg/mL (≈ 30.6 µM) | 64 µg/mL (≈ 61.2 µM) | 128 µg/mL (≈ 122 µM) | -- (Not active at 128 mcg/ml, the highest level tested) | 4 (≈ 3.82 µM) | – | – | – | – | – | – | – | – | –
4 | CCC1OC(=O)CC(O)C(C)C(OC2OC(C)C(OC3CC(C)(O)C(O)C(C)O3)C(N(C)C)C2O)C(CCOc2ccc(-c3ccccc3)cc2)CC(C)C(=O)C=CC(C)=CC1COC1OC(C)C(O)C(OC)C1OC (stereo not shown) [Compound 18, 20-DH-20-O-(p-Phenylphenyl)tylosin] | – | – | – | – | – | – | – | – | – | – | – | – | 2 (≈ 1.87 µM) | 2 (≈ 1.87 µM) | 2 (≈ 1.87 µM) | 2 (≈ 1.87 µM) | 2 (≈ 1.87 µM) | 2 (≈ 1.87 µM) | 1 (≈ 0.934 µM) | > 128 | MIC ([6]; read-out: MIC): 0.5 µg/mL (≈ 0.467 µM); MIC ([8]; Streptococcus Group D X66, agar dilution, read-out: MIC): 8 µg/mL (≈ 7.47 µM); MIC ([9]; read-out: MIC): > 128 µg/mL; MIC ([10]; read-out: MIC): > 128 µg/mL
5 | CCC1OC(=O)CC(O)C(C)C(OC2OC(C)C(OC3CC(C)(O)C(O)C(C)O3)C(N(C)C)C2O)C(CCCl)CC(C)C(=O)C=CC(C)=CC1COC1OC(C)C(O)C(OC)C1OC (stereo not shown) [Compound 7, 20-DH-DO-20-Chlorotylosin] | – | – | – | – | – | – | – | – | – | – | – | – | 1 (≈ 1.07 µM) | 1 (≈ 1.07 µM) | 2 (≈ 2.14 µM) | 1 (≈ 1.07 µM) | 1 (≈ 1.07 µM) | 2 (≈ 2.14 µM) | 32 (≈ 34.2 µM) | > 128 | MIC [8]: > 128 µg/mL; MIC ([9]; read-out: MIC): > 128 µg/mL; MIC ([10]; read-out: MIC): > 128 µg/mL; MIC (Staphylococcus aureus): 3.12 µg/mL (≈ 3.33 µM); MIC (Streptococcus bovis 80; Streptococcus equinus, read-out: MIC): 12.5 µg/mL (≈ 13.3 µM); MIC ([11]; read-out: MIC): > 50 µg/mL; MIC ([12]; read-out: MIC): > 50 µg/mL; MIC ([13]; read-out: MIC): > 50 µg/mL; MIC (Mycoplasma gallisepticum; Mycoplasmoides gallisepticum): 0.78 µg/mL (≈ 0.833 µM); MIC (Mycoplasma hyorhinis; Mycoplasma): 50 µg/mL (≈ 53.4 µM); ED50 ([14]; C203, sc, subcutaneous, read-out: ED50, Subcutaneous): > 6.3 mg/kg; ED50 ([14]; C203, oral, read-out: ED50, Oral): 11 mg/kg
